The values that follow are results of earlier work, collected in patent publication US20050159809A1, “Implantable medical devices for treating or preventing restenosis” (Medtronic Vascular, Inc., priority 2004, published 2005).

Each structure is given as a SMILES string.

This data set has as its system balloon-injury induced neointimal thickening and macrophage accumulation. Conditions: four weeks after balloon de-endothelialization.

With `CC(C)(Sc1cc(C(C)(C)C)c(O)c(C(C)(C)C)c1)Sc1cc(C(C)(C)C)c(O)c(C(C)(C)C)c1` [probucol, {[bis(3,5-di-tert-butyl-4-hydroxyphenyl)thio]propane}], the absolute neointima thickness entry (high cholesterol rabbit food plus 1% probucol vs cholesterol-only diet, P<0.05) is “reduced”. For the setting “high cholesterol rabbit food plus 1% probucol vs high cholesterol feed without probucol, P<0.001”, the “macrophage content in the neointima” value was “lower”.
